Experimental data taken from patent publication US9555130B2, “Compositions and methods for in vivo imaging of myelin in the peripheral nervous system” (Case Western Reserve University, priority 2010, dated 2017).

What was measured:
[1] = test system: sciatic nerve (PNS myelin); test: In vitro staining of sciatic nerve tissue sections, fluorescent microscopy; parameters: species or system wild type mouse; conditions: tissue section of sciatic nerve with surrounding muscle; confirmed by Black and Gold staining of adjacent section
From the text: In Vitro Staining Procedure: (1) Removal of wild type mouse sciatic nerve imbedded in muscle; (2) Sectioning of muscle with nerve with cryostat; (3) Chemical staining of tissue section of sciatic nerve with muscle tissue surrounded it; (4) Observation under fluorescent microscopy; (5) A Black and Gold staining of adjacent tissue section; and (6) Observation under regular microscope.
The staining of the sciatic nerve was confirmed by the Black and Gold staining of the adjacent tissue section (see FIG. 4).

[2] = test system: sciatic nerve (PNS myelin); test: In vivo imaging of sciatic nerve by multiphoton microscope; parameters: species or system wild type mouse; conditions: live anesthetized mouse, exposed sciatic nerve
From the text: In Vivo Staining Procedure: (1) Shave fur off region where sciatic nerve is located; (2) Cut soft tissue and muscle tissue covering sciatic nerve using surgical scissors; (3) Place animal under multiphoton microscope while anesthetized with isoflurane gas; and (4) Take live images of nerve.

CNS myelin = conditions: previously shown; cited from earlier work
[3] = test system: sciatic nerve (PNS myelin); test: Ex vivo staining of sciatic nerve after tail vein injection, microscope and FLI; type: in vivo, wild type mouse; conditions: post tail vein injection; tissue section under microscope
From the text: Ex Vivo Staining Procedure: (1) Injection of BDB via tail vein in wild type mouse; (2) Removal of sciatic nerve imbedded in muscle from right side; (3) Sectioning of muscle with nerve; (4) Observation of tissue under microscope to check staining; (5) Removal of left sciatic nerve from muscle; and (6) Observation of fluorescent in FLI machine.
An FLI machine picked up fluorescence from sciatic nerve placed in a tube with 4% paraformaldehyde (PFA) solution (FIG. 6).

[4] = Excitation and emission spectra (Cary Eclipse fluorescent spectrophotometer); type: physicochemical; conditions: 1 μM in DMSO
Procedure: FIG. 2 illustrates excitation and emission spectra of (E,E)-1,4-bis(4-aminostyryl)-2-dimethoxy-benzene (BDB) (1 μM in […]). Excitation spectra: emission at 510 nm (range 300-500 nm), bandwidth at 5 nm, scan at 120 nm/mm, integration time 0.5 sec. and maximal excitation wavelength at 426 nm. Emission spectra: excitation at 426 nm (range 430-650 nm), bandwidth at 5 nm, scan at 120 nm/min. integration time of 0.5 sec. and maximal emission wavelength at 506 nm.
Excitation and emission spectra of BDB (1 μM in DMSO) recorded using a Cary Eclipse fluorescent spectrophotometer (Variant Inc.; Palo Alto, Calif.) are shown in FIG. 2. Maximal excitation and emission peaks were found at 426 nm and 506 nm, respectively.

[5] = Solubility of BDB in organic solvents; type: physicochemical

COc1cc(/C=C/c2ccc(N)cc2)c(OC)cc1/C=C/c1ccc(N)cc1 [BDB, (E,E)-1,4-bis(4′-aminostyryl)-2-dimethoxy-benzene]
staining of sciatic nerve in vitro [1]: selectively stained the sciatic nerve
staining of intact myelin sheaths in peripheral nervous system tissue in vivo [2]: selectively stains intact myelin sheaths
binding to myelin and retention in CNS white matter (CNS myelin): selectively binds to myelin and is retained in CNS white matter
staining of sciatic nerve ex vivo [3]: successfully stained
maximal emission peak [4]: 506 nm
maximal excitation peak [4]: 426 nm
solubility [5]: soluble in CH2Cl2, DMSO, and in most other organic solvents
